Results: US8563555B2, “Pharmaceutical compositions containing a crystalline form of posaconazole” (Sandoz AG, priority 2008, dated 2013)
Converted amounts (≈) assume the structure as drawn. “And” between values parts separate entries of the source, which are not always exact repeats. Identical values can stand only once. Blank lines part the entries; values can stand above or below the compound they belong to.

Columns and labels:
[1] = Particle size distribution (Malvern, laser diffraction) in suspension; type: physicochemical; details: for Mean particle size (D4,3-value) / Median particle size (d (0.5)-value): non-micronized form, in suspension, after 5 min ultrasonic treatment
Description: Crystalline form Y in a non-micronized form as obtained by Example 1 was used to prepare 25 ml of a suspension as follows:
The suspension was prepared analogously to the method described in Example 6 up to and including the addition of glycerol and liquid glucose. Subsequently, titanium oxide was added under mixing with a suitable homogenizer, followed by the addition of the cherry flavour and of the remaining portion of 56% of the final amount of purified water under mixing until a uniform suspension was obtained.
25 ml of a similar suspension, but without cherry flavour and using 12.148 g of purified water, was prepared analoguously using non-micronized crystalline form I of posaconazole.
The particle size distribution (Malvern) was measured according to the USP <429> and EP 2.9.31. based on the diffraction of laser by particles using a Mastersizer 2000S liquid dispersion system. The particle size measurement was started after ultrasonic treatment of the sample for 5 min.

[2] = Specific surface measurement, BET method; type: physicochemical; details: for Specific Surface: nitrogen at 77° K, non-micronized
Description: Specific surface measurement was performed with the equipment NOVA 2000 as commercially available from Quantachrome Instruments using the BET method and Nitrogen as the absorbed gas at 77° K (i.e. −196.15° C.) as described e.g. by Medema J, Campagne A.: A Simple Method to Determine Cumulative Surface-Area Distributions of Porous Solids; Journal of Catalysis, Volume 8, Issue 2, pp. 120, 1967.

[3] = Equilibrium solubility method in water; type: physicochemical
Description: The solubility of form Y was determined by the equilibrium solubility method, which employed a saturated solution of form Y, obtained by stirring 250 mg form Y in 6 ml water over night. The sample was filtered through a 0.45 μm membrane filter and the concentration of form Y in the filtrate was measured using a Perkin Elmer Lambda 35 UV/VIS spectrophotometer (λ=260 nm).

[4] = Solid state stability of form Y (HPLC assay, polymorphic form); type: physicochemical
Description: HPLC assay was performed by applying the following conditions: • Column: ZORBAX XDB-C18 Rapid Resolution HT, 1.8 μm, 50×4.6 mm (Agilent Technologies) • Eluent A: Dilute 2 ml of acetic acid (99-100%) with water and fill up to 1000 ml with water. Adjust pH to 6.5 with 2.5% ammonia. • Eluent B: water/acetonitrile=50/50 (v/v) • Flow rate: 0.8 ml/min • Temperature: 40° C. • Detection: UV at 260 nm • Gradient:
The solid state stability of form Y was determined by storing approximately 1.0 g of the material in a glass bottle at a) 60° C./100% Relative Humidity (RH), open exposure, for 24 hours and b) at 140° C., closed, for 3 days.
The material was assayed by HPLC for final content and degradation products.

[5] = Moisture sorption isotherm; type: physicochemical; details: 0-95% RH, 25° C.
Description: The moisture sorption isotherm was recorded with a SPS-11 moisture sorption analyzer (MD Mess-technik, Ulm, D). The measurement cycle was started at 0% relative humidity (RH), increased in 10% steps up to 90% RH and in a 5% step up to 95% RH. The equilibrium condition for each step was set to a constant mass ±0.003% over 49 min. The temperature was 25±0.1° C.

[6] = Stability of an aqueous suspension of form Y; type: physicochemical; details: 120 mg in 3 ml water, room temperature, 4 days
Description: 120 mg form Y were suspended in 3 ml water and the suspension was stirred at room temperature.

[7] = Stability of form Y within a pharmaceutical formulation (XRPD); type: physicochemical; details: suspension stored at room temperature for 7 weeks
Description: 25 ml of a suspension containing form Y were prepared as follows:
40% of the final amount of Polysorbat 80 and 40% of the final amount of simethicon were mixed and dissolved and/or dispersed in about 12% of the final amount of purified water and homogenized with Ultra Turrax (30 seconds; 27,000 rpm). Subsequently, 1 g of form Y of posaconazole were suspended or dispersed in this mixture under homogenization by Ultra Turrax (27,000 rpm, 2 minutes). The remaining 60% of Polysorbat 80 and of simethicon and 32% of the final amount of the purified water were added and mixed followed by the addition of sodium benzoate, sodium citrate dehydrate and citric acid monohydrate. After further mixing, xanthan gum was added to the mixture under stirring, followed by a 30 minutes phase of hydratization without mixing. Subsequently, glycerol and liquid glucose and of the remaining portion of 56% of the final amount of purified water were added under mixing until a uniform suspension was obtained.
This suspension was stored at room temperature for 7 weeks. A sample of approximately 1 g of the suspension was dried under vacuum over night at room temperature. […]

[8] = Dissolution from suspension, USP <711> apparatus II; type: physicochemical; details: suspension of Example 7, paddle 25 rpm, 0.3% SLS aqueous solution
Description: Non-micronized form Y and non-micronized form I were incorporated into formulations having compositions and being prepared according to Example 7.
Dissolution of Form Y and Form I from those formulations was tested according to USP 32 (2009) method <711> (USP apparatus II (Paddle); 25 rpm; dissolution medium: 0.3% SLS aqueous solution). Posaconzole concentrations were determined with an online photometer (UV absorption at 260 nm).

[9] = cited from earlier work
[10] = 60° C./100% RH, open exposure, 24 hours
[11] = listed as crystalline form Y of posaconazole

- Mean particle size (D4,3-value) [1]: 35.1 μm
- Median particle size (d (0.5)-value) [1]: 31.3 μm
- Specific Surface ([2]; listed as Crystalline Form I of posaconazole): 1.5 m^2/g and 1.6 m^2/g
Structure (SMILES): CC[C@@H]([C@H](C)O)n1ncn(-c2ccc(N3CCN(c4ccc(OC[C@@H]5CO[C@@](Cn6cncn6)(c6ccc(F)cc6F)C5)cc4)CC3)cc2)c1=O [Crystalline Form I, posaconazole]

- water solubility of form Y relative to form I (times higher) [3]: about two
- solubility ([3]; thermodynamic from solid, saturated solution stirred over night, 0.45 μm filtrate, UV 260 nm): 1.5 µg/mL (≈ 2.14 µM)
- HPLC assay (% initial) [4, 10]: 99.9%
- degradation [4, 10]: No significant degradation observed
- HPLC assay (% initial) ([4]; 140° C., closed, 3 days): 99.9%
- degradation ([4]; 140° C., closed, 3 days): No significant degradation observed
- water uptake [5]: ≤ 0.4%
- fold smaller mean particle size compared to non-micronized form I ([1]; non-micronized): about 4 fold
- fold smaller median particle size compared to non-micronized form I ([1]; non-micronized): about 5 fold
- Mean particle size (D4,3-value) [1]: 9.9 μm
- Median particle size (d (0.5)-value) [1]: 6.0 μm
- Mean particle size (D4,3-value) [1, 11]: about 10±2 μm
- Median particle size (d (0.5)-value) [1, 11]: about 6±2 μm
- fold larger specific area compared to crystalline form I [2]: about 2.4 fold
- Specific Surface ([2]; listed as Crystalline Form Y of posaconazole): 3.6 m^2/g and 3.7 m^2/g
- Specific Surface [2, 11]: about 4±1 m^2/g
- dissolution compared to non-micronized form I [8]: clearly faster dissolution
Structure (SMILES): CC[C@@H]([C@H](C)O)n1ncn(-c2ccc(N3CCN(c4ccc(OC[C@@H]5CO[C@@](Cn6cncn6)(c6ccc(F)cc6F)C5)cc4)CC3)cc2)c1=O [Crystalline Form Y, posaconazole]
- polymorphic conversion ([4]; 24 hours at 100% RH, 60° C.): not converted into another polymorphic form
- physicochemical properties of the solid after stirring in water [6]: the same as the physicochemical properties of form Y obtained in Example 1
- polymorphic conversion in suspension (XRPD) [7]: no conversion to another polymorphic form had occurred

Structure (SMILES): CC[C@@H]([C@H](C)O)n1ncn(-c2ccc(N3CCN(c4ccc(OC[C@@H]5CO[C@@](Cn6cncn6)(c6ccc(F)cc6F)C5)cc4)CC3)cc2)c1=O [posaconazole, 2,5-anhydro-1,3,4-trideoxy-2-C-(2,4-difluorophenyl)-4-[[4-[4-[4-[1-[(1S,2S)-1-ethyl-2-hydroxypropyl]-1,5-dihydro-5-oxo-4H-1,2,4-triazol-4-yl]phenyl]-1-piperazinyl]phenoxy]methyl]-1-(1H-1,2,4-triazol-1-yl)-D-threopentitol]
- log P [9]: > 3
